Test: Chloride analysis of decomposition deposit of Clomethiazol-Base kept 7 days at 70° C.
Type: physicochemical
Conditions: deposit after 7 days at 70° C., washed with benzene
Description: Freshly distilled Clomethiazol-Base was kept for 7 days at 70° C., and the precipitated brown deposit (decomposition products) was washed with benzene and analyzed.

Cc1ncsc1CCCl [CMT-Base, 4-Methyl-5-(2'-Chlorethyl)-thiazol]
total chloride greater than the sum of free chloride and chloride of occluded CMT-Base and CMT-HCl (chloride surplus): 17%

— patent US4247702A, “Method of stabilizing 4-methyl-5-(2'chloroethyl)-thiazol” (Pharmaceutical Licences Company Ltd., priority 1978, dated 1981)
